Legend:
Atlantic salmon = experiment: Fish behaviour/appearance and mortality during bath treatment trial; assay type: in vivo; conditions: 20 ppm to 200 ppm, exposure 3 to 60 minutes
Experimental: Fish behaviour/appearance was assessed in vivo during each test. Any changes in behaviour and/or appearance including mortality were recorded.

Lepeophtheirus salmonis = experiment: Immersion treatment of sea lice challenged salmon with 10, 30 and 50 ppm imidacloprid; assay type: in vivo; conditions: for Abundance (and range) of adult female lice / Abundance (and range) of adult male lice / Abundance (and range) of ovigerous females / Mean abundance (and range) or all lice stages / Prevalence: lice counted week 8
Source text: Eight flow-through treatment tanks each containing 15 fish were set up. The fish were Salmon (Salmo salar) having an average weight of approximately 270 g and of mixed sex. Egg strings removed from ovigerous female Lepeophtheirus salmonis were collected and cultured until infective copepodids were produced. Eight bottles containing approximately 330-350 copepodids were each randomly allocated to a treatment tank (to provide an average of 22 lice per fish).
In preparation for the challenge, water flows in the tanks were stopped and light levels reduced. The lice were then added to each tank and the tanks maintained in total darkness for 6 hours after which light levels were raised and the water flow resumed.
The fish were challenged with sea lice for either one week or for six weeks.
One week after the sea lice challenge, fish in three of the tanks were treated with either 10 ppm w/v, 30 ppm w/v or 50 ppm w/v imidacloprid. One of the tanks was treated with 0.03% DMSO and another tank sham treated with sea water as controls.
For each treatment tank, the appropriate amount of imidacloprid (see Table 1) was dissolved in 100 ml of DMSO and mixed with approximately 900 ml of sea water from the experimental tank to obtain a treatment solution. The water flow on the experimental tanks was disabled and the treatment solution was then added.
Fish were exposed for 60 minutes in static water with full aeration and observed during the exposure period. At the end of the exposure period the water was rapidly drained to approximately ⅓ volume, before the flows were resumed in the tanks
Six weeks after the fish were challenged with sea lice, the fish in the three remaining treatment tanks were treated with either 10 ppm w/v, 30 ppm w/v or 50 ppm w/v imidacloprid. The treatment was carried out in the same way as for the treatment tanks one week post challenge (see 1.2.1).
Eight weeks after the fish were challenged with sea lice, the study was terminated. Fish were over anaesthetised in MS222 (tricaine methanesulfonate) and pithed using an Iki Jime tool. The length and weight of each fish and external symptoms were recorded. All lice were removed from each fish and note made of sex and stage of development. The lice were stored in ethanol and sex and stage confirmed using stereo microscope.
The data is expressed as prevalence and abundance. Prevalence is defined as the number of hosts infected with one of more individuals of a parasite species divided by the number of hosts examined (including infected and uninfected hosts) and expressed as a percentage.

[1] = 10 ppm w/v 60 min, treated 1 week post challenge
[2] = 10 ppm w/v 60 min, treated 6 weeks post challenge
[3] = 30 ppm w/v 60 min, treated 1 week post challenge
[4] = 30 ppm w/v 60 min, treated 6 weeks post challenge
[5] = 50 ppm w/v 60 min, treated 1 week post challenge, two fish removed from group
[6] = 50 ppm w/v 60 min, treated 6 weeks post challenge

## O=[N+]([O-])NC1=NCCN1Cc1ccc(Cl)nc1 [imidacloprid]
Atlantic salmon
  fish mortality in the trial: No fish died in the trial
Lepeophtheirus salmonis; 10, 30 or 50 ppm w/v, treated one week post challenge, examined week 8
  prevalence of infection of all lice stages versus the two control groups: not considered to differ
Lepeophtheirus salmonis; [1]
  Abundance (and range) of adult female lice: 0.067 (0-1)
  Abundance (and range) of adult male lice: 0.87 (0-2)
  Abundance (and range) of ovigerous females: 1.47 (0-3)
  Mean abundance (and range) or all lice stages: 2.4 (1-5)
  Prevalence: 100%
Lepeophtheirus salmonis; [2]
  Abundance (and range) of adult female lice: 0
  Abundance (and range) of adult male lice: 0
  Abundance (and range) of ovigerous females: 0
  Mean abundance (and range) or all lice stages: 0
  Prevalence: 0%
Lepeophtheirus salmonis; 10 ppm w/v, 6 weeks post challenge, 54 minutes after addition
  infected fish (each with a single ovigerous female): 2 fish
Lepeophtheirus salmonis; 10 ppm w/v, 6 weeks post challenge, 91 minutes after addition, louse stayed at least five days
  lice remaining on fish: a single male louse was observed on the head of its host
Lepeophtheirus salmonis; 10 ppm w/v, 6 weeks post challenge, first 19 minutes after addition
  lice observed in the water column: Lice were not observed in the water column
Lepeophtheirus salmonis; [3]
  Abundance (and range) of adult female lice: 0 (0-0)
  Abundance (and range) of adult male lice: 0.8 (0-1)
  Abundance (and range) of ovigerous females: 1.4 (0-3)
  Mean abundance (and range) or all lice stages: 2.2 (0-4)
  Prevalence: 93.33%
Lepeophtheirus salmonis; [4]
  Abundance (and range) of adult female lice: 0
  Abundance (and range) of adult male lice: 0
  Abundance (and range) of ovigerous females: 0
  Mean abundance (and range) or all lice stages: 0
  Prevalence: 0%
Lepeophtheirus salmonis; 30 ppm w/v, 6 weeks post challenge, 6 minutes after the 78 minute observation
  lice on the fish with re-attached lice: no lice were observed on these fish
Lepeophtheirus salmonis; 30 ppm w/v, 6 weeks post challenge, 10 minutes after addition
  lice observed in the water column: 1-2 lice
Lepeophtheirus salmonis; 30 ppm w/v, 6 weeks post challenge, 18 minutes after addition
  lice present in the water column: approximately 10 lice
Lepeophtheirus salmonis; 30 ppm w/v, 6 weeks post challenge, 25 minutes after addition
  lice noted in the water: approximately 20 lice
Lepeophtheirus salmonis; 30 ppm w/v, 6 weeks post challenge, 25 minutes after addition, 15 fish per tank
  fish appearing infected (estimated 1-2 lice per fish): less than 6 fish
Lepeophtheirus salmonis; 30 ppm w/v, 6 weeks post challenge, 33 minutes after addition
  infection status of fish: most fish were considered to be negative for any lice infections
Lepeophtheirus salmonis; 30 ppm w/v, 6 weeks post challenge, 47 minutes after addition
  fish appearing infected (each with a single louse): 3 fish
Lepeophtheirus salmonis; 30 ppm w/v, 6 weeks post challenge, 59 minutes after addition
  infection status of fish: no fish were visibly infected with lice
Lepeophtheirus salmonis; 30 ppm w/v, 6 weeks post challenge, 78 minutes after addition
  fish with re-attached louse (1 louse each): 4 fish
Lepeophtheirus salmonis; 30 ppm w/v, two days post-treatment
  lesions associated with feeding and attachment of lice: almost completely resolved
Lepeophtheirus salmonis; [5]
  Abundance (and range) of adult male lice: 1.23 (0-3)
  Abundance (and range) of ovigerous females: 1.69 (0-5)
Lepeophtheirus salmonis; [6]
  Abundance (and range) of adult female lice: 0
  Abundance (and range) of adult male lice: 0
  Abundance (and range) of ovigerous females: 0
  Mean abundance (and range) or all lice stages: 0
  Prevalence: 0%
Lepeophtheirus salmonis; 50 ppm w/v, 6 weeks post challenge, 44 minutes after addition, 15 fish per tank
  fish noted as infected (each with a single louse): five
Lepeophtheirus salmonis; 50 ppm w/v, 6 weeks post challenge, 53 minutes after addition
  fish with a single louse infection: 2-3 fish
Lepeophtheirus salmonis; 50 ppm w/v, 6 weeks post challenge, 58 minutes after addition
  lice remaining on fish: only one louse was apparent on a single fish
Lepeophtheirus salmonis; 50 ppm w/v, 6 weeks post challenge, 81 minutes after addition
  lice remaining on fish: no lice were visible on the fish
Lepeophtheirus salmonis; 50 ppm w/v, 6 weeks post challenge, after 12 minutes
  lice detached from the host, free in the water column: approximately 10 lice
Lepeophtheirus salmonis; 50 ppm w/v, 6 weeks post challenge, after 18 minutes
  lice observed in the water column: approximately 20 lice
Lepeophtheirus salmonis; 50 ppm w/v, 6 weeks post challenge, between 2 and 6 minutes after addition
  lice observed in the water column: No lice were observed
Lepeophtheirus salmonis; 50 ppm w/v, two days post treatment
  lesions associated with feeding and attachment of lice: almost completely resolved
Lepeophtheirus salmonis; all treatment doses (10, 30, 50 ppm w/v), treated six weeks after challenge
  effectiveness against motile parasitic stages of lice: 100%
Lepeophtheirus salmonis; treated one week post challenge
  overall lice abundances compared with the DMSO control: No significant differences

Reference: patent US20200068887A1, “TREATMENT FOR REMOVING ECTOPARASITES FROM FISH” (priority 2016, published 2020)
